Measured values published in patent publication US20070049564A1 (Wyeth, priority 2005, published 2007).
In brackets after ≈: the same amount, converted by molar mass. Read-outs that look alike come from different tables or passages of the source.

Assays:
[1] = system: E. coli GC 2203; experiment: MIC, broth microdilution; conditions: Escherichia coli
[2] = system: Staph.; experiment: Range of MIC for Staph. strains, including MRSA; conditions: Staphylococcus aureus
[3] = system: S. pneumoniae* GC 4465; experiment: MIC, broth microdilution; conditions: Streptococcus pneumoniae
Experimental: (§1) Antimicrobial susceptibility testing. The in vitro activities of the antibiotics are determined by the broth microdilution method as recommended by the National Committee for Clinical Laboratory Standards (NCCLS) (1). Mueller-Hinton II broth (MHBII)(BBL Cockeysville, Md.) is the medium employed in the testing procedures. Microtiter plates containing serial dilutions of each antimicrobial agent are inoculated with each organism to yield the appropriate density (10^5 CFU/ml) in a 100 μl final volume. The plates are incubated for 18-22 hours at 35° C. in ambient air.
Representative compounds were first incubated in mouse serum for an hour prior to the in vitro testing against a panel of selected gram-positive and gram-negative bacteria strains. All compounds were also pre-incubated in water for an hour prior to testing as control. Representative compounds of Formula I were incubated in human serum prior to MIC determination.

[4] = system: E. coli GC 2272; experiment: MIC, broth microdilution; conditions: Escherichia coli
[5] = system: S. epidermidis GC 4935; experiment: MIC, broth microdilution; conditions: Staphylococcus epidermidis
[6] = system: E. coli GC 2235; experiment: MIC, broth microdilution; conditions: Escherichia coli
[7] = system: S. aureus GC 6466; experiment: MIC, broth microdilution; conditions: Staphylococcus aureus
Experimental: Antimicrobial susceptibility testing. The in vitro activities of the antibiotics are determined by the broth microdilution method as recommended by the National Committee for Clinical Laboratory Standards (NCCLS) (1). Mueller-Hinton II broth (MHBII)(BBL Cockeysville, Md.) is the medium employed in the testing procedures. Microtiter plates containing serial dilutions of each antimicrobial agent are inoculated with each organism to yield the appropriate density (10^5 CFU/ml) in a 100 μl final volume. The plates are incubated for 18-22 hours at 35° C. in ambient air. […] Standard Pharmacological Test Procedures
Presented in Tables I-XIII are representative compounds of Formula I which were evaluated against a panel of 40 selected gram-positive and gram-negative bacteria strains by pre-incubation in water, mouse serum or human serum. Representative compounds were first incubated in mouse serum for an hour prior to the in vitro testing against a panel of selected gram-positive and gram-negative bacteria strains. All compounds were also pre-incubated in water for an hour prior to testing as control. Representative compounds of Formula I were incubated in human serum prior to MIC determination.

[8] = system: S. aureus GC 1079; experiment: MIC, broth microdilution; conditions: Staphylococcus aureus
[9] = system: E. coli GC 4560; experiment: MIC, broth microdilution; conditions: Escherichia coli
[10] = system: E. faecalis GC 2267; experiment: MIC, broth microdilution; conditions: Enterococcus faecalis
Experimental: as §1
Representative compounds were first incubated in mouse serum for an hour prior to the in vitro testing against a panel of selected gram-positive and gram-negative bacteria strains. All compounds were also pre-incubated in water for an hour prior to testing as control.

[11] = system: E. coli GC 2233; experiment: MIC, broth microdilution; conditions: Escherichia coli
[12] = system: S. aureus GC 1131; experiment: MIC, broth microdilution; conditions: Staphylococcus aureus
[13] = system: E. coli GC 2236; experiment: MIC, broth microdilution; conditions: Escherichia coli
[14] = system: S. typhimurium GC 2172; experiment: MIC, broth microdilution; conditions: Salmonella enterica, TYPHIMURIUM
[15] = system: E. coli GC 6465; experiment: MIC, broth microdilution; conditions: Escherichia coli
[16] = system: E. coli GC 2234; experiment: MIC, broth microdilution; conditions: Escherichia coli
[17] = system: S. aureus GC 6467; experiment: MIC, broth microdilution; conditions: Staphylococcus aureus
[18] = system: E. faecium GC 4556; experiment: MIC, broth microdilution; conditions: Enterococcus faecium
[19] = system: E. faecalis GC 4555; experiment: MIC, broth microdilution; conditions: Enterococcus faecalis
[20] = system: E. coli GC 2231; experiment: MIC, broth microdilution; conditions: Escherichia coli
[21] = read-out: MINIMAL INHIBITORY CONCENTRATION MIC, Human Serum
[22] = read-out: MINIMAL INHIBITORY CONCENTRATION MIC, Mouse Serum
[23] = read-out: MINIMAL INHIBITORY CONCENTRATION MIC, Water

## CN(C)c1cc(NC(=O)CN(C(=O)OCOC(=O)c2ccc(F)cc2)C(C)(C)C)c(O)c2c1C[C@H]1C[C@H]3[C@H](N(C)C)C(O)=C(C(N)=O)C(=O)[C@@]3(O)C(O)=C1C2=O [Example 52, ({[(2-{[(5aR,6aS,7S,10aS)-9-(aminocarbonyl)-4,7-bis(dimethylamino)-1,8,10a,11-tetrahydroxy-10,12-dioxo-5,5a,6,6a,7,10,10a,12-octahydrotetracen-2-yl]amino}-2-oxoethyl)(tert-butyl)amino]carbonyl}oxy)methyl 4-fluorobenzoate]
[1]; GC2203, read-out: MINIMAL INHIBITORY CONCENTRATION MIC, Human Serum
  MIC: 8 µg/mL (≈ 10.2 µM)
[1]; GC2203, read-out: MINIMAL INHIBITORY CONCENTRATION MIC, Mouse Serum
  MIC: 0.5 µg/mL (≈ 0.64 µM)
[1]; GC2203, read-out: MINIMAL INHIBITORY CONCENTRATION MIC, Water
  MIC: 8 µg/mL (≈ 10.2 µM)
[2]; MRSA, read-out: Range of MIC, Staph (Mouse Serum)
  MIC: 0.5 to 1 µg/mL (≈ 0.64 to 1.28 µM)
[2]; MRSA, read-out: Range of MIC, Staph (Water)
  MIC: 2 to 4 µg/mL (≈ 2.56 to 5.12 µM)
[2]; read-out: Minimum inhibitory concentration (MIC), Staph (Human Serum)
  MIC: 0.5 to 4 µg/mL (≈ 0.64 to 5.12 µM)
[2]; read-out: Minimum inhibitory concentration (MIC), Staph (Water)
  MIC: 2 to 4 µg/mL (≈ 2.56 to 5.12 µM)
[3]; [21]
  MIC: 0.25 µg/mL (≈ 0.32 µM)
[3]; [22]
  MIC: < 0.06 µg/mL
[3]; [23]
  MIC: 0.12 µg/mL (≈ 0.153 µM)
[4]; GC2272, read-out: MINIMAL INHIBITORY CONCENTRATION MIC, Human Serum
  MIC: 4 µg/mL (≈ 5.12 µM)
[4]; GC2272, read-out: MINIMAL INHIBITORY CONCENTRATION MIC, Mouse Serum
  MIC: 0.5 µg/mL (≈ 0.64 µM)
[4]; GC2272, read-out: MINIMAL INHIBITORY CONCENTRATION MIC, Water
  MIC: 4 µg/mL (≈ 5.12 µM)
[5]; GC4935, read-out: MINIMAL INHIBITORY CONCENTRATION MIC, Human Serum
  MIC: 4 µg/mL (≈ 5.12 µM)
[5]; GC4935, read-out: MINIMAL INHIBITORY CONCENTRATION MIC, Mouse Serum
  MIC: 1 µg/mL (≈ 1.28 µM)
[5]; GC4935, read-out: MINIMAL INHIBITORY CONCENTRATION MIC, Water
  MIC: 4 µg/mL (≈ 5.12 µM)
[6]; GC2235, read-out: MINIMAL INHIBITORY CONCENTRATION MIC, Human Serum
  MIC: 4 µg/mL (≈ 5.12 µM)
[6]; GC2235, read-out: MINIMAL INHIBITORY CONCENTRATION MIC, Mouse Serum
  MIC: 0.5 µg/mL (≈ 0.64 µM)
[6]; GC2235, read-out: MINIMAL INHIBITORY CONCENTRATION MIC, Water
  MIC: 4 µg/mL (≈ 5.12 µM)
[7]; GC6466, read-out: MINIMAL INHIBITORY CONCENTRATION MIC, Human Serum
  MIC: 1 µg/mL (≈ 1.28 µM)
[7]; GC6466, read-out: MINIMAL INHIBITORY CONCENTRATION MIC, Mouse Serum
  MIC: 0.5 µg/mL (≈ 0.64 µM)
[7]; GC6466, read-out: MINIMAL INHIBITORY CONCENTRATION MIC, Water
  MIC: 2 µg/mL (≈ 2.56 µM)
[8]; GC1079, read-out: MINIMAL INHIBITORY CONCENTRATION MIC, Human Serum
  MIC: 1 µg/mL (≈ 1.28 µM)
[8]; GC1079, read-out: MINIMAL INHIBITORY CONCENTRATION MIC, Mouse Serum
  MIC: 0.5 µg/mL (≈ 0.64 µM)
[8]; GC1079, read-out: MINIMAL INHIBITORY CONCENTRATION MIC, Water
  MIC: 2 µg/mL (≈ 2.56 µM)
[9]; GC4560, read-out: MINIMAL INHIBITORY CONCENTRATION MIC, Human Serum
  MIC: 2 µg/mL (≈ 2.56 µM)
[9]; GC4560, read-out: MINIMAL INHIBITORY CONCENTRATION MIC, Mouse Serum
  MIC: 0.25 µg/mL (≈ 0.32 µM)
[9]; GC4560, read-out: MINIMAL INHIBITORY CONCENTRATION MIC, Water
  MIC: 2 µg/mL (≈ 2.56 µM)
[10]; GC2267, read-out: MINIMAL INHIBITORY CONCENTRATION MIC, Human Serum
  MIC: 4 µg/mL (≈ 5.12 µM)
[10]; GC2267, read-out: MINIMAL INHIBITORY CONCENTRATION MIC, Mouse Serum
  MIC: 0.5 µg/mL (≈ 0.64 µM)
[10]; GC2267, read-out: MINIMAL INHIBITORY CONCENTRATION MIC, Water
  MIC: 4 µg/mL (≈ 5.12 µM)
[11]; GC2233, read-out: MINIMAL INHIBITORY CONCENTRATION MIC, Human Serum
  MIC: 8 µg/mL (≈ 10.2 µM)
[11]; GC2233, read-out: MINIMAL INHIBITORY CONCENTRATION MIC, Mouse Serum
  MIC: 0.5 µg/mL (≈ 0.64 µM)
[11]; GC2233, read-out: MINIMAL INHIBITORY CONCENTRATION MIC, Water
  MIC: 8 µg/mL (≈ 10.2 µM)
[12]; GC1131, read-out: MINIMAL INHIBITORY CONCENTRATION MIC, Human Serum
  MIC: 1 µg/mL (≈ 1.28 µM)
[12]; GC1131, read-out: MINIMAL INHIBITORY CONCENTRATION MIC, Mouse Serum
  MIC: 0.5 µg/mL (≈ 0.64 µM)
[12]; GC1131, read-out: MINIMAL INHIBITORY CONCENTRATION MIC, Water
  MIC: 2 µg/mL (≈ 2.56 µM)
[13]; GC2236, read-out: MINIMAL INHIBITORY CONCENTRATION MIC, Human Serum
  MIC: 8 µg/mL (≈ 10.2 µM)
[13]; GC2236, read-out: MINIMAL INHIBITORY CONCENTRATION MIC, Mouse Serum
  MIC: 1 µg/mL (≈ 1.28 µM)
[13]; GC2236, read-out: MINIMAL INHIBITORY CONCENTRATION MIC, Water
  MIC: 8 µg/mL (≈ 10.2 µM)
[14]; [21]
  MIC: 64 µg/mL (≈ 81.9 µM)
[14]; [22]
  MIC: 4 µg/mL (≈ 5.12 µM)
[14]; [23]
  MIC: 64 µg/mL (≈ 81.9 µM)
[15]; GC6465, read-out: MINIMAL INHIBITORY CONCENTRATION MIC, Human Serum
  MIC: 16 µg/mL (≈ 20.5 µM)
[15]; GC6465, read-out: MINIMAL INHIBITORY CONCENTRATION MIC, Mouse Serum
  MIC: 2 µg/mL (≈ 2.56 µM)
[15]; GC6465, read-out: MINIMAL INHIBITORY CONCENTRATION MIC, Water
  MIC: 64 µg/mL (≈ 81.9 µM)
[16]; GC2234, read-out: MINIMAL INHIBITORY CONCENTRATION MIC, Human Serum
  MIC: 4 µg/mL (≈ 5.12 µM)
[16]; GC2234, read-out: MINIMAL INHIBITORY CONCENTRATION MIC, Mouse Serum
  MIC: 0.5 µg/mL (≈ 0.64 µM)
[16]; GC2234, read-out: MINIMAL INHIBITORY CONCENTRATION MIC, Water
  MIC: 8 µg/mL (≈ 10.2 µM)
[17]; GC6467, read-out: MINIMAL INHIBITORY CONCENTRATION MIC, Human Serum
  MIC: 4 µg/mL (≈ 5.12 µM)
[17]; GC6467, read-out: MINIMAL INHIBITORY CONCENTRATION MIC, Mouse Serum
  MIC: 0.5 µg/mL (≈ 0.64 µM)
[17]; GC6467, read-out: MINIMAL INHIBITORY CONCENTRATION MIC, Water
  MIC: 4 µg/mL (≈ 5.12 µM)
[18]; GC4556, read-out: MINIMAL INHIBITORY CONCENTRATION MIC, Human Serum
  MIC: 2 µg/mL (≈ 2.56 µM)
[18]; GC4556, read-out: MINIMAL INHIBITORY CONCENTRATION MIC, Mouse Serum
  MIC: 0.5 µg/mL (≈ 0.64 µM)
[18]; GC4556, read-out: MINIMAL INHIBITORY CONCENTRATION MIC, Water
  MIC: 4 µg/mL (≈ 5.12 µM)
[19]; GC4555, read-out: MINIMAL INHIBITORY CONCENTRATION MIC, Human Serum
  MIC: 2 µg/mL (≈ 2.56 µM)
[19]; GC4555, read-out: MINIMAL INHIBITORY CONCENTRATION MIC, Mouse Serum
  MIC: 0.5 µg/mL (≈ 0.64 µM)
[19]; GC4555, read-out: MINIMAL INHIBITORY CONCENTRATION MIC, Water
  MIC: 4 µg/mL (≈ 5.12 µM)
[20]; GC2231, read-out: MINIMAL INHIBITORY CONCENTRATION MIC, Human Serum
  MIC: 8 µg/mL (≈ 10.2 µM)
[20]; GC2231, read-out: MINIMAL INHIBITORY CONCENTRATION MIC, Mouse Serum
  MIC: 1 µg/mL (≈ 1.28 µM)
[20]; GC2231, read-out: MINIMAL INHIBITORY CONCENTRATION MIC, Water
  MIC: 16 µg/mL (≈ 20.5 µM)
